Test [1] deals with Bombyx mori. Description: Insecticidal activity against fourth-instar larval stage of Bombyx mori Shunrei x Shongetsu assessed as fourth-instar larval duration time at 100 ppm administered through artificial diet (reference value: 5.1 +/- 0.2 days). Type of test: functional.
Test [2] has as its system Bombyx mori. Description: Insecticidal activity against fourth-instar larval stage of Bombyx mori Shunrei x Shongetsu assessed as fourth-instar larval duration time at 30 ppm administered through artificial diet (reference value: 5.1 +/- 0.2 days). It is filed as functional.
Test [3] concerns Bombyx mori. Description: Insecticidal activity against fourth-instar larval stage of Bombyx mori Shunrei x Shongetsu assessed as delay in increase of hemolymph 20-hydroxyecdysone level at 50 ppm administered through artificial diet measured for 5 days post third ecdysis by ELISA relative to acetone-treated control. Type of test: functional, organism-based.

Calls of active or inactive are those of the source. The calls are words filed in the database; no cut-off is given here.

As to `CN1CCN(CCCOC(=O)C(C)(c2ccccc2)c2ccccc2)CC1`, the Time in the test with Bombyx mori [1] was 7.5 days; in the test on Bombyx mori [2], 6.9 days.

With `CN1[C@@H]2CC[C@H]1CC(OC(=O)[C@H](CO)c1ccccc1)C2` (stereo partly drawn) [ENDO-ATROPINE], the values for the Time in the test with Bombyx mori [1] and in the test on Bombyx mori [2] were 6.3 days and 5.2 days, respectively.

On to `CC(C(=O)OCCCN1CCCCC1)(c1ccccc1)c1ccccc1`, for which the Time in the test with Bombyx mori [1] worked out at 7.4 days; in the test with Bombyx mori [2], 5.1 days.

Regarding `CCN1CCN(CCOC(=O)C(C)(c2ccccc2)c2ccccc2)CC1`, the values for the Time in the test with Bombyx mori [1] and in the test on Bombyx mori [2] were 6.2 days and 5.1 days, respectively.

For the compound `CCN1CCN(CCCOC(=O)C(C)(c2ccccc2)c2ccccc2)CC1`, the Time amounted to 7.2 days in the test with Bombyx mori [1] and 6.5 days in the test with Bombyx mori [2]. Moreover, the result with Bombyx mori [3] was Active.

In the case of `CN(CCCOC(=O)C(C)(c1ccccc1)c1ccccc1)C1CCCCC1`, the Time is 5.6 days in the test on Bombyx mori [1] and 5 days in the test with Bombyx mori [2].

As to `CCN(CC)CCCOC(=O)C(C)(c1ccccc1)c1ccccc1`, the results for the Time in the test on Bombyx mori [1] and in the test on Bombyx mori [2] were 5.2 days and 5.1 days, respectively.

With `CC(C(=O)OCCCN1CCOCC1)(c1ccccc1)c1ccccc1`, the Time with Bombyx mori [1] is 6.1 days; in the test with Bombyx mori [2] it was 5 days.

As for `CCN1CCN(CCCCOC(=O)C(C)(c2ccccc2)c2ccccc2)CC1`, the Time in the test on Bombyx mori [1] was 6.1 days; with Bombyx mori [2], 5.6 days.

On to `CCN1CCN(CCCCCCOC(=O)C(C)(c2ccccc2)c2ccccc2)CC1`, for which the Time in the test on Bombyx mori [1] was determined as 4.5 days; in the test on Bombyx mori [2], 4.7 days.

As for `CCN1CCN(CCCCCOC(=O)C(C)(c2ccccc2)c2ccccc2)CC1`, the results for the Time in the test with Bombyx mori [1] and in the test with Bombyx mori [2] were 5.8 days and 5.1 days, respectively.

Turning to `CN1C2CCC1CC(OC(=O)C(C)(c1ccccc1)c1ccccc1)C2` (stereo unspecified), the Time in the test with Bombyx mori [2] stood at 6.1 days.

Regarding `CC(C(=O)OCCCN1CCCC1)(c1ccccc1)c1ccccc1`, the Time with Bombyx mori [1] amounted to 6 days; in the test on Bombyx mori [2] it was 5.2 days.

The values above are taken from ChEMBL document CHEMBL3046499, “Synthesis of 2,2-diphenylpropionate derivatives and their effects on larval growth of the silkworm” (2000).
